From patent US6080746A, “Methods and compositions for the prophylaxis and treatment of cytomegalovirus infections” (priority 1991, dated 2000)
Values after ≈ are worked out from the molar mass of the structure shown.

What was measured:
human CMV [1] = test: Intravitreal human CMV infection in pigmented rabbits, intravitreal treatment; assay type: in vivo; set-up: key to retinal pathology level: 1-2+: focal hemmorhages and development of localized retinal necrosis; key to Vitritis scores: 1-2+: mild; key to vitritis: 2+: mild vitritis
Protocol: Animal models for human CMV disease were prepared by inoculating human CMV by intravitreal injection into pigmented rabbits. The animals developed in 3-4 days post inoculation a mild to moderate vitritis, focal retinal microhemorrhages, and localized retinal necrosis.
Dosages of 2'-CdG of various amounts in 100 μl of sterile water were injected into rabbit models beginning on day 3 post inoculation and repeated on day 5 and day 7N.
Development and resolution of HCMV intraocular disease in the 80 μg therapy group was similar to disease development in the 100 μg therapy group as described below.
Seven pigmented rabbits were infected with human CMV by intravitreal injection. Beginning on day 3 PI, these animals received 3 successive injections of 100 μg 2'CdG in 50 μl on day 3, 4, and 5 PI. […] Vitritis scores in these animals were 1-2+ (mild) and retinal pathology was reduced to 1-2+ level (focal hemmorhages and development of localized retinal necrosis). […] Initial virus recovery assays indicate that human CMV titers were reduced to 0 or 1 log by day 2 post therapy.

CMV [2] = test: Intravitreal injection for a week, tolerability and antiviral effect; assay type: in vivo; conditions: 100 μg/kg every 48 hours intravitreally for a week
Excerpt: Effective dosages may be administered also in sustained release dosage form.

human CMV [3] = test: Intravitreal human CMV infection in pigmented rabbits, intravitreal treatment; assay type: in vivo; set-up: key to vitritis, maximum development: 1-2+: mild; conditions: 80 μl (so in the source) of 2'-CdG
[4] = test system: human cytomegalovirus (strain AD 169); test: Inhibition of human cytomegalovirus in MRC5 cells by plaque reduction assay (reduction of CPE, MIC50; Table 1); assay type: cell-based; conditions: Human betaherpesvirus 5, MRC5, treatment 0 hr postinfection, read-out: Reduction (%) of CPE at Time of Harvest
Excerpt: (§1) In each case, drug treatment began 0 hr. postinfection.

[5] = test system: human cytomegalovirus (strain AD 169); test: CMV yield in MRC5 cells (Table 1); assay type: cell-based
Excerpt: as §1

[6] = test system: human diploid embryonic lung cells (MRC5); test: Drug cytotoxicity (gross morphology) in MRC5 cells (Table 1); conditions: 320 μg/ml
Excerpt: Also evaluated under the same conditions were prior art drugs Ara-A and ganciclovir (DHPG). In each case, drug treatment began 0 hr. postinfection.

HCMV = test: Virus yield-reduction assay, combination with DHPG on HCMV replication in MRC5 cells (Table 2); assay type: cell-based, human CMV; conditions: (±)-2'-CDG 0
Excerpt: Effect of Combination Treatment^a With (±)-2'-CDG and
DHPG on HCMV Replication in MRC5 Cells
(Virus Yield-Reduction Assay)

CMV [7] = test: ED50 antiviral efficacy against CMV in human foreskin fibroblast cells; assay type: cell-based; conditions: Human betaherpesvirus 5, read-out: ED50 (median dose at which 50% antiviral efficacy against CMV is produced)
Protocol: The ED50 value (median dose at which 50% antiviral efficacy against CMV is produced) was 0.06 μg/mL for D-2'-CdG and 0.20 for DHPG in human foreskin fibroblast cells.

cytomegalovirus = conditions: in vivo; cited from earlier work
CMV [8] = test: Reduction of CPE in CMV-infected MRC5 cell monolayer cultures (Tables 4 and 5); assay type: cell-based; conditions: Human betaherpesvirus 5, MRC5, read-out: Reduction (%) of CPE by D-2'-CDG at Time of Virus Harvest
Protocol: (§2) The effectiveness of racemic 2'-CdG and of D-2'-CdG on CMV yields in MRC5 cell monolayer cultures was determined by a plaque assay with the results set forth in Tables 4 and 5:
(§3) ^a Drug treatment began immediately following the virus adsorption
(§4) ^a Drug treatment began immediately following the 1 1/2 hour

CMV [9] = test: CMV yields in MRC5 cell monolayer cultures by plaque assay (Tables 4 and 5); assay type: cell-based; conditions: for CMV Yield: virus control 1.1 × 10^5; for CMV Yield (log10): virus control 5.1
Protocol: as §2, §3, §4

MRC5 cells = test: Drug cytotoxicity (gross morphology) in MRC5 cell monolayer cultures (Tables 4 and 5); assay type: cell-based, human
Protocol: as §2, §3, §4

CMV [10] = test: MIC50 against CMV in MRC5 cells; assay type: cell-based
human CMV [11] = test: Intravitreal human CMV infection in New Zealand white rabbits, intravitreal treatment; assay type: in vivo; conditions: 100 μg in 100 μl intravitreal, 48-hour intervals from day 4
Excerpt: The symptoms included vitritis, iritis, retinal pathology (micro hemorrhages and focal necrosis of the retinal
surface), corneal stromal haze and neovascularization, and corneal endothelial pigmented precipitates. […] The intravitreal route offers some significant advantages for intraocular infections including: 1) delivery of maximal concentrations of drug to the desired site of action; 2) increased potential for sustained release (i.e. longer half-life, T1/2) of the drug; and 3) reduced potential for systemic toxicity.

[12] = 40 μg per 100 μl injection, intravitreal
[13] = 100 μg in 50 μl daily, day 3, 4 and 5 PI

Nc1nc2c(ncn2[C@@H]2C[C@H](CO)[C@@H](O)C2)c(=O)[nH]1 [2'-CdG]
Retinal necrosis at sacrifice (human CMV [1]; [12]): evident in all animals at sacrifice
retinal hemorrhages (human CMV [1]; [12]): focal retinal hemorrhages
vitritis (human CMV [1]; [12]): 2+
controlling the development of disease (human CMV [1]; 40 μg per 100 μl injection, intravitreal, from day 3 post inoculation): moderately effective in controlling the development of disease
Vitritis scores (human CMV [1]; [13]): 1-2+
human CMV-induced vitritis and retinal pathology (preliminary) (human CMV [1]; [13]): effective in reducing the development of human CMV-induced vitritis and retinal pathology
progressive disease by day 7 post inoculation (human CMV [1]; [13]): had not developed the progressive disease
retinal pathology level (human CMV [1]; [13]): 1-2+
progressive disease (human CMV [1]; 2'CdG at two day intervals): progressive disease that is observed
moderate to severe retinal necrosis and detachment (human CMV [1]; lower concentration 2'CdG therapies): observed in the lower concentration 2'CdG therapies
antiviral effectiveness (CMV [2]): antivirally effective
tolerability (CMV [2]): well tolerated
development of vitritis and of retinal pathology (human CMV [3]; intravitreal): effective in reducing the development of vitritis (1-2+ maximum development) and in altering the observed development of retinal pathology
vitritis, maximum development (human CMV [3]; intravitreal): 1-2+
Retinal blood vessel engorgement and focal microhemorrhages (human CMV [3]; days 3, 4 and 5 post inoculation): Retinal blood vessel engorgement was evident and focal microhemorrhages were present

Nc1nc(O)c2ncn(COC(CO)CO)c2n1 [DHPG, dihydroxy propoxymethyl guanine, reference compound]
inhibition at 0.1 µg/mL ([4]; 0.1 μg/ml): 0%
inhibition at 0.32 µg/mL ([4]; 0.32 μg/ml): 5%
inhibition at 1 µg/mL ([4]; 1.0 μg/ml): 30%
inhibition at 3.2 µg/mL ([4]; 3.2 μg/ml): 60%
inhibition at 10 µg/mL ([4]; 10 μg/ml): 95%
inhibition at 32 µg/mL ([4]; 32 μg/ml): 100%
inhibition at 100 µg/mL ([4]; 100 μg/ml): 100%
inhibition at 320 µg/mL ([4]; 320 μg/ml): 100%
CMV Yield ([5]; 0.1 μg/ml, virus control 5.5 (DHPG 5.3)): 4.7 log10 CCID50 /ml
CMV Yield ([5]; 0.32 μg/ml, virus control 5.5 (DHPG 5.3)): 4.6 log10 CCID50 /ml
CMV Yield ([5]; 1.0 μg/ml, virus control 5.5 (DHPG 5.3)): 3.6 log10 CCID50 /ml
CMV Yield ([5]; 3.2 μg/ml, virus control 5.5 (DHPG 5.3)): 2.3 log10 CCID50 /ml
CMV Yield ([5]; 10 μg/ml, virus control 5.5 (DHPG 5.3)): 1.0 log10 CCID50 /ml
CMV Yield ([5]; 32 μg/ml, virus control 5.5 (DHPG 5.3)): 0 log10 CCID50 /ml
CMV Yield ([5]; 100 μg/ml, virus control 5.5 (DHPG 5.3)): 0 log10 CCID50 /ml
CMV Yield ([5]; 320 μg/ml, virus control 5.3): 0 log10 CCID50 /ml
Drug Cytotoxicity (gross morphology) [6]: sl. toxicity
Reduction in CMV Yield (HCMV; DHPG 1.0 μM): 0.5 Log10 PFU/ML
Reduction in CMV Yield (HCMV; DHPG 3.2 μM): 1.3 Log10 PFU/ML
Reduction in CMV Yield (HCMV; DHPG 10.0 μM): 1.8 Log10 PFU/ML
EC50 (CMV [7]): 0.2 µg/mL (≈ 0.784 µM)
toxicity (cytomegalovirus): dose-limiting toxicity

Nc1nc2c(ncn2[C@@H]2C[C@H](CO)[C@@H](O)C2)c(=O)[nH]1 [D-2'-CdG]
inhibition at 0.1 µM (CMV [8]; Table 5, 0.1 μM): 0%
inhibition at 0.32 µM (CMV [8]; Table 5, 0.32 μM): 0%
inhibition at 1 µM (CMV [8]; Table 5, 1.0 μM): 10%
inhibition at 3.2 µM (CMV [8]; Table 5, 3.2 μM): 10%
inhibition at 10 µM (CMV [8]; Table 5, 10 μM): 25%
inhibition at 32 µM (CMV [8]; Table 5, 32 μM): 50%
inhibition at 100 µM (CMV [8]; Table 5, 100 μM): 50%
CMV Yield (CMV [9]; Table 5, 0.1 μM): 3.8 × 10^4 PFU/mL
CMV Yield (log10) (CMV [9]; Table 5, 0.1 μM): 4.6 log10 PFU/mL
CMV Yield (CMV [9]; Table 5, 0.32 μM): 1.4 × 10^4 PFU/mL
CMV Yield (log10) (CMV [9]; Table 5, 0.32 μM): 4.1 log10 PFU/mL
CMV Yield (CMV [9]; Table 5, 1.0 μM): 5.4 × 10^3 PFU/mL
CMV Yield (log10) (CMV [9]; Table 5, 1.0 μM): 3.7 log10 PFU/mL
CMV Yield (CMV [9]; Table 5, 3.2 μM): 8.4 × 10^2 PFU/mL
CMV Yield (log10) (CMV [9]; Table 5, 3.2 μM): 2.9 log10 PFU/mL
CMV Yield (CMV [9]; Table 5, 10 μM): 2 × 10^1 PFU/mL
CMV Yield (log10) (CMV [9]; Table 5, 10 μM): 1.3 log10 PFU/mL
CMV Yield (CMV [9]; Table 5, 32 μM): 0 PFU/mL
CMV Yield (CMV [9]; Table 5, 100 μM): 0 PFU/mL
Drug Cytotoxicity (gross morphology) (MRC5 cells; Table 5, 0.1 μM): 0
Drug Cytotoxicity (gross morphology) (MRC5 cells; Table 5, 0.32 μM): 0
Drug Cytotoxicity (gross morphology) (MRC5 cells; Table 5, 1.0 μM): 0
Drug Cytotoxicity (gross morphology) (MRC5 cells; Table 5, 3.2 μM): 0
Drug Cytotoxicity (gross morphology) (MRC5 cells; Table 5, 10 μM): 0
Drug Cytotoxicity (gross morphology) (MRC5 cells; Table 5, 32 μM): v. sl. toxicity
Drug Cytotoxicity (gross morphology) (MRC5 cells; Table 5, 100 μM): slight toxicity
Drug Cytotoxicity (gross morphology) (MRC5 cells; Table 5, 320 μM): toxic
IC50 (CMV [10]; Human betaherpesvirus 5): < 0.029 µg/mL
MIC50 relative to the MIC50 of DL-2'-CdG (CMV [10]; same conditions): about half (or less)
EC50 (CMV [7]): 0.06 µg/mL (≈ 0.226 µM)
clinical outcome compared with ganciclovir (DHPG) (human CMV [11]): clinically better than treatment with ganciclovir (DHPG)
development of retinal pathology, severity of vitritis and iritis vs placebo (human CMV [11]): effective in reducing the development of retinal pathology and in reducing the severity of the vitritis and iritis
